Measured values published in patent US12679832B2, “Compounds and their uses as CD38 inhibitors” (Nanjing Immunophage Biotech Co., Ltd., priority 2021, dated 2026).
pIC50: −log10 of the molar value.

Target: T1, hCD38 Enzyme (Homo sapiens, UniProt P28907)
T1 construct: purchased Sino Biological Inc 10818-H08H
T1 sequence (P28907 43-300 limits assumed): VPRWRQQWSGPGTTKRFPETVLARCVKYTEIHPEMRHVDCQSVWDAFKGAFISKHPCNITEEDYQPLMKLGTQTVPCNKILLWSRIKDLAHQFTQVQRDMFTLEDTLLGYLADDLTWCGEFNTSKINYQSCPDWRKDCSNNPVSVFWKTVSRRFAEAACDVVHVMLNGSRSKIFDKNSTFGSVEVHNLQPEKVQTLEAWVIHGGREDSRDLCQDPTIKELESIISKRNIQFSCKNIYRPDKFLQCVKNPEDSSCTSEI
Experiment: CD38 hydrolase enzymatic assay
Format: biochemical
Conditions: rhCD38, ε-NAD substrate, 25° C., point reading time 20 mins; read-out: hCD38 Enzyme inhibition IC50

SMILES	pIC50
O=C(Nc1ccc(F)c(F)c1)c1cc(C(F)(F)F)nc(-n2ccnc2)n1 [compound 173, N-(3,4-difluorophenyl)-2-(1H-imidazol-1-yl)-6-(trifluoromethyl) pyrimidine-4-carboxamide]	8.17
O=C(Nc1cc(F)cc(F)c1)c1cc(C(F)(F)F)nc(-n2ccnc2)n1 [compound 174, N-(3,5-difluorophenyl)-2-(1H-imidazol-1-yl)-6-(trifluoromethyl) pyrimidine-4-carboxamide]	8.27
O=C(Nc1cc(F)cc(N2CCNCC2)c1)c1cc(C(F)(F)F)nc(-n2ccnc2)n1 [compound 175, N-(3-fluoro-5-(piperazin-1-yl)phenyl)-2-(1H-imidazol-1-yl)-6-(trifluoromethyl) pyrimidine-4-carboxamide]	7.17
O=C(Nc1cc(F)cc(N2CCOCC2)c1)c1cc(C(F)(F)F)nc(-n2ccnc2)n1 [compound 176, N-(3-fluoro-5-morpholinophenyl)-2-(1H-imidazol-1-yl)-6-(trifluoromethyl) pyrimidine-4-carboxamide]	7.70
O=C(Nc1cccc(N2CCOCC2)c1)c1cc(C(F)(F)F)nc(-n2ccnc2)n1 [compound 177, 2-(1H-imidazol-1-yl)-N-(3-morpholinophenyl)-6-(trifluoromethyl) pyrimidine-4-carboxamide]	7.42
O=C(Nc1cc(F)cc(N2CC[C@H](O)C2)c1)c1cc(C(F)(F)F)nc(-n2ccnc2)n1 [compound 178, (S)-N-(3-fluoro-5-(3-hydroxypyrrolidin-1-yl)phenyl)-2-(1H-imidazol-1-yl)-6-(trifluoromethyl) pyrimidine-4-carboxamide]	7.76
COC(C)(C)c1cc(F)cc(NC(=O)c2cc(C(F)(F)F)nc(-n3ccnc3)n2)c1 [compound 179, N-(3-fluoro-5-(2-methoxypropan-2-yl)phenyl)-2-(1H-imidazol-1-yl)-6-(trifluoromethyl) pyrimidine-4-carboxamide]	6.23
CN(C)CCOc1cc(F)cc(NC(=O)c2cc(C(F)(F)F)nc(-n3ccnc3)n2)c1 [compound 181, N-(3-(2-(dimethylamino)ethoxy)-5-fluorophenyl)-2-(1H-imidazol-1-yl)-6-(trifluoromethyl) pyrimidine-4-carboxamide]	7.60
CO[C@H]1CC[C@H](NC(=O)c2cc(-c3ccncc3)nc(-n3ccnc3)n2)CC1 [compound 183, 2-(1H-imidazol-1-yl)-N-((1r,4r)-4-methoxycyclohexyl)-6-(pyridin-4-yl) pyrimidine-4-carboxamide]	7.55
N#Cc1cc(C(=O)Nc2cccc(F)c2)nc(-n2ccnc2)n1 [compound 185, 6-cyano-N-(3-fluorophenyl)-2-(1H-imidazol-1-yl) pyrimidine-4-carboxamide]	8.70
N#Cc1cc(C(=O)Nc2cccnc2)nc(-n2ccnc2)n1 [compound 186, 6-cyano-2-(1H-imidazol-1-yl)-N-(pyridin-3-yl)pyrimidine-4-carboxamide]	8.70
N#Cc1cc(C(=O)Nc2ccc(F)cc2)nc(-n2ccnc2)n1 [compound 187, 6-cyano-N-(4-fluorophenyl)-2-(1H-imidazol-1-yl)pyrimidine-4-carboxamide]	8.70
N#Cc1cc(C(=O)Nc2cncnc2)nc(-n2ccnc2)n1 [compound 189, 6-cyano-2-(1H-imidazol-1-yl)-N-(pyrimidin-5-yl)pyrimidine-4-carboxamide]	7.92
O=C(Nc1ccncc1)c1cc(C(F)(F)F)cc(-n2ccnc2)n1 [compound 190, 6-(1H-imidazol-1-yl)-N-(pyridin-4-yl)-4-(trifluoromethyl) picolinamide]	8.55
O=C(Nc1cccnc1)c1cc(C(F)(F)F)cc(-n2ccnc2)n1 [compound 191, 6-(1H-imidazol-1-yl)-N-(pyridin-3-yl)-4-(trifluoromethyl) picolinamide]	8.42
O=C(Nc1cncnc1)c1cc(C(F)(F)F)cc(-n2ccnc2)n1 [compound 192, 6-(1H-imidazol-1-yl)-N-(pyrimidin-5-yl)-4-(trifluoromethyl) picolinamide]	8.21
O=C(Nc1cnc(OCCO)nc1)c1cc(C(F)(F)F)nc(-n2ccnc2)n1 [compound 193, N-(2-(2-hydroxyethoxy)pyrimidin-5-yl)-2-(1H-imidazol-1-yl)-6-(trifluoromethyl) pyrimidine-4-carboxamide]	7.96
O=C(O)COc1ncc(NC(=O)c2cc(C(F)(F)F)nc(-n3ccnc3)n2)cn1 [compound 194, 2-((5-(2-(1H-imidazol-1-yl)-6-(trifluoromethyl)pyrimidine-4-carboxamido)pyrimidin-2-yl)oxy) acetic acid]	7.52
